Laboratory results from patent EP4803080A1, “METHOD FOR TREATING LEUKEMIA” (Shenzhen TargetRx Co., Ltd., priority 2023, dated 2025).
Where two headings read alike, the source gives them in different places. Values belong to the compound of their own block, whether it stands above or below them.

Columns and labels:
[1] = tested on: Ba/F3 BCR-ABL1 Y253H/T315I; assay: Cell growth inhibition activity test, single agents and combinations (CellTiter-Glo, Chou-Talalay); assay type: cell-based, mouse; conditions: Mus musculus; for IC90: Fig. 3
Method: (§1) A series of cell lines expressing BCR-ABL1 single mutations and compound mutations were constructed based on the Ba/F3 mouse pro-B cell line.
(§2) This assay utilized the CellTiter-Glo (CTG) kit provided by Promega, which is a homogeneous method for cell viability detection, measuring the viability of cultured cells by quantifying ATP. Cells were seeded in 96-well plates and treated with different concentrations of test substances. […] At the end of the treatment, CTG reagent (CellTiter-Glo kit) was added according to the manufacturer's instructions to detect cell viability values. Plates were read on a microplate reader (Biotek cytation 3.0). IC50 values were calculated using GraphPad Prism 7.0 software.

[2] = tested on: Ba/F3 BCR-ABL1 Q252H/T315I; assay: as above; assay type: cell-based, mouse; conditions: for IC50: Mus musculus, BaF3, 72 h
Method: as §1, §2

Ba/F3 BCR-ABL1 T315M = assay: as above; assay type: cell-based, mouse
Method: as §1, §2

[3] = tested on: Ba/F3 BCR-ABL1 E255V/T315I; assay: as above; assay type: cell-based; conditions: Mus musculus, BaF3, 72 h
Method: as §1, §2

[4] = clinical dose of 45 mg QD; cited from earlier work
[5] = Tissue distribution study using quantitative whole-body autoradiography (QWBA); assay type: in vivo, Long-Evans rats and Sprague-Dawley rats; conditions: single oral 50 mg/100 µCi/kg
Method: This test utilized a total of 8 male Long Evans (LE) rats, randomly designated as Gt1M01 to Gt1M08; and 4 Sprague-Dawley (SD) rats, with an equal number of males and females, randomly designated as Gt2M01 to Gt2M02 and Gt2F01 to Gt2F02. Each rat received a single oral dose of 50 mg/100 µCi/kg of [^14C]-Compound A via gavage. SD rats were euthanized at 4 hours and 72 hours post-dose (with the 72-hour rats serving as backups); LE rats were euthanized at 0.5 hours, 4 hours, 24 hours, 72 hours, 168 hours, 336 hours, 504 hours, and 840 hours post-dose (with the 504-hour and 840-hour rats serving as backups). According to the rat sequence numbers, one male and one female SD rat and one male LE rat were transferred to an induction chamber, euthanized with an overdose of carbon dioxide, and about 4 mL of whole blood was collected via cardiac puncture. Immediately after blood collection, the carcasses were immersed in a dry ice-hexane bath for freezing and fixation.
Plasma samples were obtained by low-temperature centrifugation of whole blood. After homogenization, aliquots of each plasma sample were mixed directly with scintillation fluid, and the radioactivity was measured using a liquid scintillation counter (LSC). Frozen carcasses were sectioned, dried, and exposed/developed to determine total radioactivity in tissues/regions (including gastrointestinal contents). Pharmacokinetic parameters for total radioactivity in plasma and tissues were calculated using a non-compartmental model with WinNonLin software (version 8.3, Certara). After development of sections at each time point, 46 tissues/regions (including gastrointestinal contents) were analyzed for LE rats, and 45 tissues/regions (including gastrointestinal contents) were analyzed for SD rats. The radioactivity concentrations in unanalyzed regions were all lower than the lowest concentration in the analyzed tissues or regions.

SMILES: COc1cc(Nc2c(C#N)cnc3cc(OCCCN4CCN(C)CC4)c(OC)cc23)c(Cl)cc1Cl [bosutinib]
IC50 ([1]; BaF3, 72 h): 3715 ± 9.9 nM
IC50 [2]: 3130 ± 9.9 nM
IC50 (Ba/F3 BCR-ABL1 T315M; Mus musculus, BaF3, 72 h): 3.97 ± 0.151 µM
IC50 [3]: 3920 ± 1380 nM

SMILES: Cc1ccc(C(=O)Nc2ccc(CN3CCN(C)CC3)c(C(F)(F)F)c2)cc1C#Cc1cnc2cccnn12 [ponatinib]
minimum plasma concentration at steady state (Cssmin) [4]: 64.3 nM
IC90 ([1]; BaF3, read-out: IC90 value of ponatinib, ponatinib in combination with asciminib): 165 nM
IC90 ([1]; BaF3, read-out: IC90 value of ponatinib, ponatinib in combination with compound A): 60.9 nM
inhibition of cell viability ([2]; single-agent ponatinib at 60 nM and 48 nM, Fig. 5): could be inhibited
anti-proliferative effect (Ba/F3 BCR-ABL1 T315M; single-agent ponatinib, Fig. 6): no anti-proliferative effect

SMILES: O=C(Nc1ccc(OC(F)(F)Cl)cc1)c1cnc(N2CC[C@@H](F)C2)c(-c2cnccn2)c1 [[14C]-Compound A]
Total Radioactivity, Plasma ([5]; Female SD rats, 4 hrs): 15320 ng Eq./g
Total Radioactivity, Whole brain ([5]; Female SD rats, 4 hrs): 9800 ng Eq./g
Total Radioactivity, Plasma ([5]; Male LE rats, 0.5 hrs): 7131 ng Eq./g
Total Radioactivity, Whole brain ([5]; Male LE rats, 0.5 hrs): 4885 ng Eq./g
Total Radioactivity, Plasma ([5]; Male LE rats, 4 hrs): 11981 ng Eq./g
Total Radioactivity, Whole brain ([5]; Male LE rats, 4 hrs): 6950 ng Eq./g
Total Radioactivity, Plasma ([5]; Male SD rats, 4 hrs): 10656 ng Eq./g
Total Radioactivity, Whole brain ([5]; Male SD rats, 4 hrs): 6400 ng Eq./g

Results, then the compound that gave them:

IC50 ([1]; BaF3, 72 h, single agent, Y253H/T315I, 72 hours, read-out: IC50): 8420 ± 245 nM
SMILES: Cc1ncc(NC(=O)c2ccc(CN3CCN(C)CC3)c(C(F)(F)F)c2)cc1Nc1nccc(-c2cccnc2)n1 [flumatinib]

IC50 ([1]; BaF3, 72 h, read-out: IC50^I1): 36.9 nM
IC50 ([1]; BaF3, read-out: IC50^I2): 5.44 nM
IC50 [2]: 7.7 ± 0.01 nM
IC50 [3]: 25.8 ± 2.9 nM
SMILES: Cc1ccc(C(=O)Nc2ccc(CN3CCN(C)CC3)c(C(F)(F)F)c2)cc1C#Cc1cnc2[nH]ncc2c1 [olverembatinib]
